Assay results taken from patent publication US20180340225A1 (SHANGHAI INSTITUTE FOR ENDOCRINE AND METABOLIC DISEASES, priority 2015, published 2018).

System: patients with Type 2 diabetes
Test: Clinical efficacy indexes before and after 3 months of Acarbose treatment in naïve patients with Type 2 diabetes, by enterotype
Format: in vivo, human
Settings: Bacterioide enterotype, After treatment
Protocol: For naïve patients with Type 2 diabetes, their liver and kidney functions, blood glucose and lipid levels, intestinal hormones, inflammatory factors, and cardiovascular risk-related factors are evaluated before medication. Their stool, urine, and blood samples are retained. […] The patients' blood glucose levels are followed up every month within 3 months, and the medication is adjusted according to the blood glucose level. Three months later, the pre-medication assessment is repeated, and the urine, stool and blood samples are retained.
a) A randomized, opened, positive control method is adopted to collect the naïve patients with Type 2 diabetes and normal controls of their spouses. […] The newly diagnosed patients of Type 2 diabetes without medication receive routine examinations, including the retention of stool and blood samples.
i. Draw venous blood 15 ml under fasting condition, of which, 1.5 ml is used for detection of plasma glucose, 6.5 ml is added to ordinary tubes (including aprotinin, DPPV inhibitor), and 6.5 ml is added to anticoagulant tubes (including heparin and RNA later)
ii. Centrifuge the blood in ordinary tube at 4° C., when serum is separated out, draw about 3 ml, and divide to three 1.5 ml Eppendorf on average, then tighten the tube caps;
iii. Centrifuge the anticoagulation blood immediately at 4° C., to separate out about 3 ml of plasma, then divide to three 1.5 ml imported RNAase free Eppendorf tubes on average, […]

C[C@H]1O[C@H](O[C@H]2[C@H](O)[C@@H](O)[C@@H](O[C@H]3[C@H](O)[C@@H](O)C(O)O[C@@H]3CO)O[C@@H]2CO)[C@H](O)[C@@H](O)[C@@H]1N[C@H]1C=C(CO)[C@@H](O)[C@H](O)[C@H]1O (stereo partly shown) [Acarbose]
AKP Mean: 59.23
ALB Mean: 42.26
ALT Mean: 29.43
APOA Mean: 1.2475
APOB Mean: 0.9636
AST Mean: 22.46
Adipisin Mean: 3174901.441
Adpn Mean: 5157339.824
BMI Mean: 25.51
BW Mean: 71.91
CP0 Mean: 2.216
CP30 Mean: 2.7525
CP60 Mean: 3.71
CP120 Mean: 5.204
CP180 Mean: 4.843
DBIL Mean: 2.966
DBP Mean: 75.37
ENDOM Mean: 13.44
Endothelin Mean: 4.159
FABP3 Mean: 2351
FABP4 Mean: 11504.54286
FGF1M Mean: 22.57
FGF2M Mean: 12.69
FGF19M Mean: 19.74
FGF23M Mean: 37.07
G30 Mean: 7.623
G60 Mean: 9.074
G120 Mean: 9.171
G180 Mean: 7.941
GIP0 Mean: 80.26
GIP30 Mean: 219.1
GIP60 Mean: 258.945
GIP120 Mean: 264
GIP180 Mean: 201.6
GMCSFM Mean: 64.62
GO Mean: 6.607
HB Mean: 140.6
HBA1C Mean: 6.425
HDL Mean: 2.989
HGF Mean: 434.2
HIP Mean: 98.83
HOMA.IR Mean: 2.487
IFNr1 Mean: 42.1
IL1B Mean: 0.5324
IL1bM Mean: 14.66
IL2M Mean: 53.46
IL4M Mean: 30.73
IL5M Mean: 38.44
IL6M Mean: 55.85
IL6 Mean: 4.846
IL8 Mean: 11.92
IL9M Mean: 84.63
IL10 Mean: 2.301
IL12 Mean: 10.12
IL13 Mean: 311.7
IL15M Mean: 333.3
IL17AM Mean: 33.74
IL17EM Mean: 22.24
IL17FM Mean: 181.4
IL21 Mean: 29.13
IL22M Mean: 42.5
IL23M Mean: 39.35
IL27 Mean: 61.28
IL28a Mean: 20.04
IL31M Mean: 113
IL33M Mean: 42.13
INS0 Mean: 8.284
INS30 Mean: 14.5
INS60 Mean: 23.7
INS120 Mean: 30.33
INS180 Mean: 22.83
K Mean: 7.893
LBP Mean: 17.36
LDL Mean: 1.242
LEPTIN Mean: 6481
LPA Mean: 32.841
Lymph Mean: 28.87
MCP1 Mean: 256.6
MIP3A Mean: 43.77
NEU Mean: 58.47
NGAL Mean: 125535.0294
NGF Mean: 1.865
Na Mean: 136.9
PAI1 Mean: 52769.94118
PDGFAA Mean: 4702
PDGFAABB Mean: 24130.63636
PP0 Mean: 80.32
PP30 Mean: 331.7
PP60 Mean: 330.8
PP120 Mean: 258.8
PP180 Mean: 174
RANTES Mean: 50811.91176
RBC Mean: 4.832
RCv Mean: 2.58
SBP Mean: 120.9
TBIL Mean: 16.36
TC Mean: 4.736
TG Mean: 1.525
TNFBM Mean: 38.44
TNFa Mean: 4.773
TPRO Mean: 70.11
Trophonin M Mean: 16.15
WAIST Mean: 88.45
WBC Mean: 6.913
WHR Mean: 0.8956
bun Mean: 329.2
creatine Mean: 67.61
crp Mean: 29.96
egf Mean: 183.4
fetuinA Mean: 400.9
fgf1 Mean: 11.66
fgf2 Mean: 35.4
fgf21M Mean: 100.1
fgf21 Mean: 0.37
monocyte Mean: 5.481
mpo Mean: 275.8
oscatinM Mean: 86.94
pCP0 Mean: 1099
pCP30 Mean: 1394
pCP60 Mean: 1891
pCP120 Mean: 2787
pCP180 Mean: 2452
pGLP10 Mean: 4.564
pGLP130 Mean: 12.21
pGLP160 Mean: 13.2
pGLP1120 Mean: 10.47
pGLP1180 Mean: 7.518
pHOMA.IR Mean: 2.565
pgh0 Mean: 55.75
pgh30 Mean: 70.15
pgh60 Mean: 66.51
pgh120 Mean: 58.56
pgh0180 Mean: 60.3
pgluc0 Mean: 37.3
pgluc30 Mean: 43.28
pgluc60 Mean: 43.96
pgluc120 Mean: 35.95
pgluc180 Mean: 32.29
pins0 Mean: 391
pins30 Mean: 561.8
pins60 Mean: 892.8875
pins120 Mean: 1169
pins180 Mean: 916.7
platelet Mean: 214
ppyy0 Mean: 49.602
ppyy30 Mean: 55.74
ppyy60 Mean: 59.37
ppyy120 Mean: 54.45
ppyy180 Mean: 56.15
rGT Mean: 24.82
resistin Mean: 14639.64706
sicam1 Mean: 112.3
svcam1 Mean: 484.8
urea Mean: 4.731
vegfa Mean: 475.2
vegfc Mean: 106.3
vegfd Mean: 145.4
